Measured values from PMC7782793, “Hydroxamic acid-modified peptide microarrays for profiling isozyme-selective interactions and inhibition of histone deacetylases” (Nature Communications, 2021).
Where “and” joins values, the source holds several entries; their conditions need not be identical. Equal values may be shown once. Marks after values point to notes of the source that are not given here. Non-standard residues stand in square brackets, D forms with d. Residues, ends and D or L forms follow the SMILES beside them. *: point of attachment. Asu = N[C@@H](CCCCCC(=O)O)C(=O)O; NHOH = ON*

Key:
HDAC3/NCoR2 [1] = molecular target: T1, HDAC3/NCoR2 (Homo sapiens, UniProt O15379); assay: HDAC inhibition assay (fluorogenic, Ac-Leu-Gly-Lys(Ac)-AMC); assay type: biochemical; conditions: for HDAC3 dose-response data (relative enzyme activity), Fig. 6 + S. Fig. 10: duplicate columns
T1 construct: HDAC3/NCoR2 (full length, C-terminal His tag, NCoR2 N-terminal GST tag); purchased BPS Bioscience 50003
T1 sequence (O15379 whole entry): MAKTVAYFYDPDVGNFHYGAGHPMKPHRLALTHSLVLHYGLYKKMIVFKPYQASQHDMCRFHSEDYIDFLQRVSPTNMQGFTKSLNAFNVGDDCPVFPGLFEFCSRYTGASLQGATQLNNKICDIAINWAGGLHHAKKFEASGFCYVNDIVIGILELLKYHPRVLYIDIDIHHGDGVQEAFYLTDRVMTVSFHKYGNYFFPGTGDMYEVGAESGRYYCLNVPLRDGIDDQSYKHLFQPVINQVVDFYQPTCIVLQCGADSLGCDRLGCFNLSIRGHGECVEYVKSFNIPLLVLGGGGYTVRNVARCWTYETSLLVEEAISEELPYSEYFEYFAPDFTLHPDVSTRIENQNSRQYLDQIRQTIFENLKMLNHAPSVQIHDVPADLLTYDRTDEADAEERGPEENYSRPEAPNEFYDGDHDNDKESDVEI
T1 sequence (Q9Y618 389-480 partner limits assumed): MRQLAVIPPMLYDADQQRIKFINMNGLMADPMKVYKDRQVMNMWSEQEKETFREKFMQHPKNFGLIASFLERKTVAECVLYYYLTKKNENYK

HDAC8 = molecular target: T2, HDAC8 (Homo sapiens, UniProt Q9BY41); assay: HDAC inhibition assay (fluorogenic, Ac-Leu-Gly-Lys(Tfa)-AMC); assay type: biochemical; conditions: for HDAC8 dose-response data (relative enzyme activity, replicate values), Fig. 6 + S. Fig. 10: two replicate columns per inhibitor; for HDAC8 dose-response data (relative enzyme activity), Fig. 6 + S. Fig. 10: duplicate columns
T2 construct: HDAC8 (full length, C-terminal His tag, BPS Bioscience, cat. #: 50008); purchased BPS Bioscience 50008
T2 sequence (Q9BY41 1-377): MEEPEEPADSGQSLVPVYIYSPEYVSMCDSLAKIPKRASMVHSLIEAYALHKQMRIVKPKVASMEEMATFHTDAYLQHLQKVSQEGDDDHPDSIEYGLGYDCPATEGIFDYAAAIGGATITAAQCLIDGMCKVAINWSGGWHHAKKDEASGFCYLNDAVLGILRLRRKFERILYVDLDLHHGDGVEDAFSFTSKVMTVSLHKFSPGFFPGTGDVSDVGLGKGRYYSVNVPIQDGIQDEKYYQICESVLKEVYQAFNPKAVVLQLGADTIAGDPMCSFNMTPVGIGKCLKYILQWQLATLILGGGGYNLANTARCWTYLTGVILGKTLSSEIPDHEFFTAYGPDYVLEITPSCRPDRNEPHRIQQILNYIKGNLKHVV

HDAC2 = molecular target: T3, HDAC2 (Homo sapiens, UniProt Q92769); assay: HDAC inhibition assay (fluorogenic, Ac-Leu-Gly-Lys(Ac)-AMC); assay type: biochemical; conditions: for HDAC2 dose-response data (relative enzyme activity), Fig. 6 + S. Fig. 10: duplicate columns
T3 construct: HDAC2 (full length, C-terminal His tag, BPS Bioscience, cat. #: 50002); purchased BPS Bioscience 50002
T3 sequence (Q92769 whole entry): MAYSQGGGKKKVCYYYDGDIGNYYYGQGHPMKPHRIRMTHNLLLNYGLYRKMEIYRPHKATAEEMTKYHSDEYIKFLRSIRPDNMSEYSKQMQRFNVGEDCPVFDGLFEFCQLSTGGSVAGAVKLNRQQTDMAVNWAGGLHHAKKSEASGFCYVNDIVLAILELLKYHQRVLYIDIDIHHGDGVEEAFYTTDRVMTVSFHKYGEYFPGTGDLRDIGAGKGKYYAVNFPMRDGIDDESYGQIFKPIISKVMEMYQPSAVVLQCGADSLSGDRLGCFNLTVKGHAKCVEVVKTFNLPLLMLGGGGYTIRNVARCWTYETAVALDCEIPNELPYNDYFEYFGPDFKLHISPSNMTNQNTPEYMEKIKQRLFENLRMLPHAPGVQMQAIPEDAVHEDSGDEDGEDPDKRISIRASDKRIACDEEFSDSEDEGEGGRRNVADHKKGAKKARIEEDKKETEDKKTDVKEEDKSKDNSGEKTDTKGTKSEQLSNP

HDAC1 [2] = molecular target: T4, HDAC1 (Homo sapiens, UniProt Q13547); assay: Recombinant HDAC µSPOT microarray binding assay;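 also: slides with spotted peptides incubated with six HDAC concentrations in HEPES buffer pH 7.4, spot intensities fitted by four-parameter logistic, EC50 as enzyme concentration giving half-maximal binding signal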
T4 construct: HDAC1 (full length, C-terminal His tag, C-terminal FLAG tag, BPS Bioscience, cat. #: 50051); FLAG (C); purchased BPS Bioscience 50051
T4 sequence (Q13547 whole entry): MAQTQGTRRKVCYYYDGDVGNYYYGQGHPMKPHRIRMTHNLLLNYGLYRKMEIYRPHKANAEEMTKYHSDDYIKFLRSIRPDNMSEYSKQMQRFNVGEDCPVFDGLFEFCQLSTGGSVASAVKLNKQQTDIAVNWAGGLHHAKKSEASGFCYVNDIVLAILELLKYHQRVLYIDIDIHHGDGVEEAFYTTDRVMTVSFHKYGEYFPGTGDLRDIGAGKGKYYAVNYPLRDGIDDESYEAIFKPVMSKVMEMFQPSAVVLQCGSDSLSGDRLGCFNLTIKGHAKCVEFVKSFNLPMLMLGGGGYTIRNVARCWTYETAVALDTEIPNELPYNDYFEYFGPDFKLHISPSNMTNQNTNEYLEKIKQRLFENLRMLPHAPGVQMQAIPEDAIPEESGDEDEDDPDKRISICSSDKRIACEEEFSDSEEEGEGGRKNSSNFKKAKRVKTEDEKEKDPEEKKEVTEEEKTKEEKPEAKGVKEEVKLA

HDAC1 [3] = molecular target: T4, HDAC1; assay: HDAC inhibition assay (fluorogenic, Ac-Leu-Gly-Lys(Ac)-AMC); assay type: biochemical; conditions: for HDAC1 dose-response data (relative enzyme activity), Fig. 6 + S. Fig. 10: duplicate columns
HDAC3/NCoR2 [4] = molecular target: T1, HDAC3/NCoR2; assay: Recombinant HDAC µSPOT microarray binding assay;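 also: peptide spots on cellulose slides incubated with rising HDAC enzyme concentrations, imaged together, four-parameter logistic fit, EC50 is enzyme concentration giving half-maximal binding signal, two experiments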
HDAC4 = molecular target: T5, HDAC4 (Homo sapiens, UniProt P56524); assay: HDAC inhibition assay (fluorogenic, Ac-Leu-Gly-Lys(Tfa)-AMC); assay type: biochemical; conditions: 2 internal replicates
T5 construct: purchased BPS Bioscience 50004
T5 sequence (P56524 627-1084): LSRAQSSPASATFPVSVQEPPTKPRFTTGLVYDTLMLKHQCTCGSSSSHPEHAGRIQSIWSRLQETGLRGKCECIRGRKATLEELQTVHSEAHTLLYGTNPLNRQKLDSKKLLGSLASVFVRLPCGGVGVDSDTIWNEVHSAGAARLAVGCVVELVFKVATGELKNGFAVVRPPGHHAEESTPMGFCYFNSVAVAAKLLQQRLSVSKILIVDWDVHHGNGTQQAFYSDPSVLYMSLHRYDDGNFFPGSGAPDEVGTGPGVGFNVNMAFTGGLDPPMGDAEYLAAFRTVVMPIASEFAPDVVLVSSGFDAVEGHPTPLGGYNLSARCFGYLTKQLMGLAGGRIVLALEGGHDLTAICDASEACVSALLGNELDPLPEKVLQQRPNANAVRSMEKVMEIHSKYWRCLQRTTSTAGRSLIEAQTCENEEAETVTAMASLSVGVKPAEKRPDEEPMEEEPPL

HDAC6 = molecular target: T6, HDAC6 (Homo sapiens, UniProt Q9UBN7); assay: HDAC inhibition assay (fluorogenic, Ac-Leu-Gly-Lys(Ac)-AMC); assay type: biochemical; conditions: for residual enzymatic activity relative to control wells: HDAC6, replicates
T6 construct: HDAC6 (full length, BPS Bioscience, cat. #: 50056); purchased BPS Bioscience 50056
T6 sequence (Q9UBN7 1-1215): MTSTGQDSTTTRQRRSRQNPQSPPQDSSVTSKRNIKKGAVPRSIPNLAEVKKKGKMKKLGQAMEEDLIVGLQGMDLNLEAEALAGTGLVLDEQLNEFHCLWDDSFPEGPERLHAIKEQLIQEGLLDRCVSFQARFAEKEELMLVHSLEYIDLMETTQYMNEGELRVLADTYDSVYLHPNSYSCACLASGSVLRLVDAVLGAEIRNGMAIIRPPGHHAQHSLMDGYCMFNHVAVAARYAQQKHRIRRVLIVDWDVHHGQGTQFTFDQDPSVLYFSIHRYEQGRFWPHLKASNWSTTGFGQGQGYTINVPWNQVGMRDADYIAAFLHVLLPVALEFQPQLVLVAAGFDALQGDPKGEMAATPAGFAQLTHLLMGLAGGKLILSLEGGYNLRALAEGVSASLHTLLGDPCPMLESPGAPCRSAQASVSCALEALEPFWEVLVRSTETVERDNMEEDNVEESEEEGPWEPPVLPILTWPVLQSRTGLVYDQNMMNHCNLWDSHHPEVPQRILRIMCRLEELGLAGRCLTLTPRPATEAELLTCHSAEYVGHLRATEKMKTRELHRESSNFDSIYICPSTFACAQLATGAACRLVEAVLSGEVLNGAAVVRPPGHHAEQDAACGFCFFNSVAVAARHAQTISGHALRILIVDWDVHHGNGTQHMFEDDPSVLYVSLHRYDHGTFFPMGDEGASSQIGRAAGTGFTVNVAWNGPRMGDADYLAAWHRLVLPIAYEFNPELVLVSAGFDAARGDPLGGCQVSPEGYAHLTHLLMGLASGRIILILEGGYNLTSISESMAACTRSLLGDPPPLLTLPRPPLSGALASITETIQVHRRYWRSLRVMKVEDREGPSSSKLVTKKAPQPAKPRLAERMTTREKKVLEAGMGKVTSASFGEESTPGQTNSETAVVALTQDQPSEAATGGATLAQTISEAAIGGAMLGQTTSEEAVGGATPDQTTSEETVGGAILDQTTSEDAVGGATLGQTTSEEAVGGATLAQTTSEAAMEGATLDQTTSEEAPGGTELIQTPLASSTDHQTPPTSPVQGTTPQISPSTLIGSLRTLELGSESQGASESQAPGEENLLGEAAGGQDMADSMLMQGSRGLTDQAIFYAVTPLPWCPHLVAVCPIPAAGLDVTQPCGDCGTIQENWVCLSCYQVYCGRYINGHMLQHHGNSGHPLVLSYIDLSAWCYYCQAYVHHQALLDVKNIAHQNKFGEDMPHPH

[5] = log[inhibitor(M)] -10,5850266520292*, whole line marked with asterisks

CC(=O)N[C@@H](C)C(=O)N[C@H](C(=O)NCC(=O)NCC(=O)N[C@H](C(=O)N[C@@H](CCCCCC(=O)NO)C(=O)N[C@@H](CCCCN)C(=O)N1CCC[C@H]1C(=O)N[C@@H](Cc1c[nH]cn1)C(=O)N[C@@H](CCCNC(=N)N)C(=O)N[C@@H](Cc1ccc(O)cc1)C(=O)N[C@@H](CCCNC(=N)N)C(=O)N1CCC[C@H]1C(=O)NCC(=O)N[C@H](C(=O)N[C@H](C(=O)N[C@@H](Cc1c[nH]c2ccccc12)C(N)=O)C(C)C)[C@@H](C)O)C(C)C)[C@@H](C)O [15a] (Ac-ATGGV[Asu](NHOH)KPHRYRPGTVW-NH2)
Ki (HDAC3/NCoR2 [1]): 21.7 ± 0.2 nM | HDAC3 dose-response data (relative enzyme activity), Fig. 6 + S. Fig. 10 (HDAC3/NCoR2 [1]; log[inhibitor(M)] -4.30103): 0.4402 and 0.4708 | HDAC3 dose-response data (relative enzyme activity), Fig. 6 + S. Fig. 10 (HDAC3/NCoR2 [1]; log[inhibitor(M)] -5): 1.6435 and 1.312 | HDAC3 dose-response data (relative enzyme activity), Fig. 6 + S. Fig. 10 (HDAC3/NCoR2 [1]; log[inhibitor(M)] -5.69897): 7.236 and 5.348 | HDAC3 dose-response data (relative enzyme activity), Fig. 6 + S. Fig. 10 (HDAC3/NCoR2 [1]; log[inhibitor(M)] -6.39794): 28.5726 and 19.4648 | HDAC3 dose-response data (relative enzyme activity), Fig. 6 + S. Fig. 10 (HDAC3/NCoR2 [1]; log[inhibitor(M)] -7.09691): 64.2255 and 50.9194 | HDAC3 dose-response data (relative enzyme activity), Fig. 6 + S. Fig. 10 (HDAC3/NCoR2 [1]; log[inhibitor(M)] -7.79588): 97.9959 and 83.1339 | HDAC3 dose-response data (relative enzyme activity), Fig. 6 + S. Fig. 10 (HDAC3/NCoR2 [1]; log[inhibitor(M)] -8.49485): 112.173 and 97.0745 | HDAC3 dose-response data (relative enzyme activity), Fig. 6 + S. Fig. 10 (HDAC3/NCoR2 [1]; log[inhibitor(M)] -9.19382): 112.635 and 104.337 | HDAC3 dose-response data (relative enzyme activity), Fig. 6 + S. Fig. 10 (HDAC3/NCoR2 [1]; log[inhibitor(M)] -9.89279): 114.089 and 99.1792 | Ki (HDAC8): 1680 ± 13 nM | HDAC8 dose-response data (relative enzyme activity, replicate values), Fig. 6 + S. Fig. 10 (HDAC8; Inhibitor conc [M] -8.49485 (log)): 104.092 and 106.342 | HDAC8 dose-response data (relative enzyme activity, replicate values), Fig. 6 + S. Fig. 10 (HDAC8; Inhibitor conc [M] -9.19382 (log)): 107.088 and 104.012 | HDAC8 dose-response data (relative enzyme activity, replicate values), Fig. 6 + S. Fig. 10 (HDAC8; Inhibitor conc [M] given as -7.09691 (log)): 97.5487 and 105.051 | HDAC8 dose-response data (relative enzyme activity, replicate values), Fig. 6 + S. Fig. 10 (HDAC8; Inhibitor conc [M] given as -7.79588 (log)): 103.383 and 113.008 | HDAC8 dose-response data (relative enzyme activity, replicate values), Fig. 6 + S. Fig. 10 (HDAC8; Inhibitor conc [M] given as -9.89279 (log)): 103.125 and 102.688 | HDAC8 dose-response data (relative enzyme activity), Fig. 6 + S. Fig. 10 (HDAC8; Inhibitor conc [M] -4.30103): 7.884 and 8.121 | HDAC8 dose-response data (relative enzyme activity), Fig. 6 + S. Fig. 10 (HDAC8; Inhibitor conc [M] -5): 24.6267 and 25.2578 | HDAC8 dose-response data (relative enzyme activity), Fig. 6 + S. Fig. 10 (HDAC8; Inhibitor conc [M] -5.69897): 57.0341 and 59.1741 | HDAC8 dose-response data (relative enzyme activity), Fig. 6 + S. Fig. 10 (HDAC8; Inhibitor conc [M] -6.39794): 87.2467 and 93.8953 | HDAC2 dose-response data (relative enzyme activity), Fig. 6 + S. Fig. 10 (HDAC2; log[inhibitor(M)] -5): 7.156 and 8.696 | HDAC2 dose-response data (relative enzyme activity), Fig. 6 + S. Fig. 10 (HDAC2; log[inhibitor(M)] -5.69897): 27.5449 and 22.7201 | HDAC2 dose-response data (relative enzyme activity), Fig. 6 + S. Fig. 10 (HDAC2; log[inhibitor(M)] -7.79588): 107.892 and 100.231 | HDAC2 dose-response data (relative enzyme activity), Fig. 6 + S. Fig. 10 (HDAC2; [5]): 104,1863* and 103,2461* | Ki (HDAC2; resynthesized peptide in solution, Cheng-Prusoff, n = 2): 70.2 ± 0.5 nM | EC50 (HDAC1 [2]): 5.01 nM | Ki (HDAC1 [3]): 70 ± 1 nM | HDAC1 dose-response data (relative enzyme activity), Fig. 6 + S. Fig. 10 (HDAC1 [3]; log[inhibitor(M)] -4.30103): 2.2617 and 2.685 | HDAC1 dose-response data (relative enzyme activity), Fig. 6 + S. Fig. 10 (HDAC1 [3]; log[inhibitor(M)] -6.39794): 54.2155 and 43.2283 | HDAC1 dose-response data (relative enzyme activity), Fig. 6 + S. Fig. 10 (HDAC1 [3]; log[inhibitor(M)] -7.09691): 91.0731 and 84.0543 | HDAC1 dose-response data (relative enzyme activity), Fig. 6 + S. Fig. 10 (HDAC1 [3]; log[inhibitor(M)] -7.79588): 111.87 and 112.408 | HDAC1 dose-response data (relative enzyme activity), Fig. 6 + S. Fig. 10 (HDAC1 [3]; log[inhibitor(M)] -8.49485): 111.243 and 114.065 | HDAC1 dose-response data (relative enzyme activity), Fig. 6 + S. Fig. 10 (HDAC1 [3]; log[inhibitor(M)] -9.19382): 105.717 and 111.571 | HDAC1 dose-response data (relative enzyme activity), Fig. 6 + S. Fig. 10 (HDAC1 [3]; log[inhibitor(M)] -9.89279): 103.869 and 106.196 | HDAC1 dose-response data (relative enzyme activity), Fig. 6 + S. Fig. 10 (HDAC1 [3]; [5]): 100,2561* and 100,875* | EC50 (HDAC3/NCoR2 [4]): 2.4 nM | residual enzymatic activity relative to control wells (HDAC4; inhibitor 5 µM): 108.47 | remaining activity at 5 µM (HDAC4; inhibitor 5 µM, read-out: residual enzymatic activity relative to control wells): 98.7% | residual enzymatic activity relative to control wells (HDAC4; inhibitor 50 µM): 74.7 | remaining activity at 50 µM (HDAC4; inhibitor 50 µM, read-out: residual enzymatic activity relative to control wells): 89.4% | residual enzymatic activity relative to control wells (HDAC6; log[inhibitor(M)] -4.30103): 3.78 and 1.49 | residual enzymatic activity relative to control wells (HDAC6; log[inhibitor(M)] -5): 9.7 and 2.71 | residual enzymatic activity relative to control wells (HDAC6; log[inhibitor(M)] -5.69897): 22.49 and 13.07 | residual enzymatic activity relative to control wells (HDAC6; log[inhibitor(M)] -6.39794): 47.9 and 35.05 | residual enzymatic activity relative to control wells (HDAC6; log[inhibitor(M)] -7.09691): 78.65 and 63.46 | residual enzymatic activity relative to control wells (HDAC6; log[inhibitor(M)] -7.79588): 92.99 and 81.77 | residual enzymatic activity relative to control wells (HDAC6; log[inhibitor(M)] -8.49485): 99.83 and 89.79 | residual enzymatic activity relative to control wells (HDAC6; log[inhibitor(M)] -9.19382): 102.59 and 95.48 | residual enzymatic activity relative to control wells (HDAC6; log[inhibitor(M)] -9.89279): 101.36 and 96.27 | residual enzymatic activity relative to control wells (HDAC6; log[inhibitor(M)] -10.585): 101,22* and 96,07* | Ki (HDAC6; in solution): 114 ± 2 nM
